Experimental data as given in patent US8278337B2, “Substituted pyridines that are JNK inhibitors” (Merck Sharp & Dohme, priority 2006, dated 2012).
Where “and” joins values, the source holds several entries; their conditions need not be identical. Equal entries are not always repeated. Where two headings read alike, the source gives them in different places. One block for each molecule: values may come before it.

Columns and labels:
Format in all cases: biochemical
JNK1 = JNK1 (Homo sapiens, UniProt P45983); assay: DELFIA kinase assay, JNK1
In short: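 Enzyme (2 nM JNK1) was preincubated 10 min with 0–100 μM compound in HEPES pH 7.3 with 5% DMSO, then reacted 30 min at room temperature with biotinylated GST-ATF2 (6 ug/mL). Final ATP was 7 uM for JNK1, 4 uM for JNK2 and 2 uM for JNK3. Phospho-ATF2 was detected by DELFIA europium fluorescence (ex 340, em 615 nm).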

JNK2 = JNK2 (Homo sapiens, UniProt P45984); assay: DELFIA kinase assay, JNK2
Description: (§1) Assay DELFIA (Dissociation Enhanced Lanthanide Fluorescence Immuno-Assay) Assay:
(§2) Before initiation of kinase reactions, compounds were pre-incubated with the enzyme for 10 minutes. Pre-incubation reactions contained 50 mM HEPES pH 7.3, 10 mM MgCl2, 1 mM DTT, 75 mM NaCl, 1 mM EDTA, 1 mM EGTA, 0.01% CHAPS, 2 nM JNK1, 6 ug/mL biotinylated GST-ATF2, 0.1 mg/ml BSA, 5% DMSO and 0-100 μM compound in a total volume of 40 μL. After a 10 minute room temperature pre-incubation, 10 μL of 35 μM ATP was added to start the reaction (final concentration of ATP=7 uM). Reactions were incubated at room temperature for 30 minutes. A small aliquot (10 uL) was taken and quenched by adding into 190 uL of DELFIA Assay buffer containing 100 mM EDTA. The amount of phosphate transferred to biotinylated GST-ATF2 was measured using the Dissociation Enhanced Lanthanide Fluorescence Immuno-assay (DELFIA) from Perkin Elmer according to manufacturers protocol. Briefly, biotinylated GST-ATF2 was captured on streptavidin coated plates for 1 hour, washed twice, then incubated for 1 hour with a 1:1000 dilution of rabbit-anti-phospho-ATF2 antibody and a 1:3500 dilution of Europium-labeled anti-rabbit secondary antibody. Free antibody was removed with six washes, Europium was dissociated from the antibody, and Europium fluorescence was measured using an excitation wavelength of 340 nm and an emission wavelength of 615 nm. JNK2 and JNK3 kinase reactions were carried out similarly, with the exception that the final concentration of ATP was 4 uM and 2 uM, respectively.

JNK3 = JNK3 (Homo sapiens, UniProt P53779); assay: DELFIA kinase assay, JNK3
Description: as §1, §2

[1] = DELFIA assay, 2 nM JNK1, 7 uM ATP, 10 min pre-incubation
[2] = DELFIA assay, 2 nM JNK1, 7 uM ATP, 10 min pre-incubation, second table, read-out: JNK 1 IC50
[3] = DELFIA, biotinylated GST-ATF2 substrate, 10 minute pre-incubation, final ATP 7 uM
[4] = DELFIA, biotinylated GST-ATF2 substrate, final ATP 4 uM
[5] = DELFIA, biotinylated GST-ATF2 substrate, final ATP 2 uM

Chain of JNK2 (P45984 whole entry, species assumed): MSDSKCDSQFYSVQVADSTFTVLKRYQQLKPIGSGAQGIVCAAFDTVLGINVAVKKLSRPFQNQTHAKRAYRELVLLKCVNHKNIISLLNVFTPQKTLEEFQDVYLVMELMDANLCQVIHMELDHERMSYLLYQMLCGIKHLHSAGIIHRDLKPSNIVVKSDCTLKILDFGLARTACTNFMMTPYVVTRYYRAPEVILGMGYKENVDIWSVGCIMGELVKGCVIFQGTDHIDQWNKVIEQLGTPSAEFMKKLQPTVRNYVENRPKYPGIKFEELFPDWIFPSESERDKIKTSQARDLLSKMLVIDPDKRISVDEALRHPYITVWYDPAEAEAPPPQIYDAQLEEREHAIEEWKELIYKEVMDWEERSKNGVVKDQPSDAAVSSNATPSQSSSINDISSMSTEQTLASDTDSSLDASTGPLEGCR
Chain of JNK1 (P45983 whole entry, species assumed): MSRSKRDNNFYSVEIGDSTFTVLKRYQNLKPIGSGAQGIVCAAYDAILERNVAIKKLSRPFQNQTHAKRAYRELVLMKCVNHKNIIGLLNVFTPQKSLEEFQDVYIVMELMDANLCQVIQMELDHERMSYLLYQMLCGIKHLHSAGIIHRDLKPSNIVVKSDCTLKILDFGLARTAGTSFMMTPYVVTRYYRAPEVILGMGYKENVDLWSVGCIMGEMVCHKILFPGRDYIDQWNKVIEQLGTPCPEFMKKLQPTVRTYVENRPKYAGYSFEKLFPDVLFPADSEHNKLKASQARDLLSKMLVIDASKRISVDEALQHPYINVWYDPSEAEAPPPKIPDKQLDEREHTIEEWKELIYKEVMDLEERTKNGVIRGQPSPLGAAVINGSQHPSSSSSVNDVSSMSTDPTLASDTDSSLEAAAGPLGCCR
Chain of JNK3 (P53779 whole entry, species assumed): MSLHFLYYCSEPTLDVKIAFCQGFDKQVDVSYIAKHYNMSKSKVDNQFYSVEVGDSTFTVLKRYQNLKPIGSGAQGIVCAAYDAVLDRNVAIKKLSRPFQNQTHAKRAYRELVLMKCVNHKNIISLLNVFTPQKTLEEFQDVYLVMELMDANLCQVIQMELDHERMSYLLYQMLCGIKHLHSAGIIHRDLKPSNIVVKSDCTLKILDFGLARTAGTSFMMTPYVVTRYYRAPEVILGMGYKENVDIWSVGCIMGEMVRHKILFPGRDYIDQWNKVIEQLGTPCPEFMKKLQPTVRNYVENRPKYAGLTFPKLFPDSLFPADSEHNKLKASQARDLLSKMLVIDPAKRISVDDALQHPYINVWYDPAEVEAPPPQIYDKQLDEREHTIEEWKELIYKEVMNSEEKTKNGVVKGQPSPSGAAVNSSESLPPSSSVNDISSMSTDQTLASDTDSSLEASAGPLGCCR

IC50 (JNK1; [1]): 0.017 µM
IC50 (JNK1; [2]): 0.017 µM
IC50 (JNK1; [3]): 0.004 to 0.019 µM and 0.004 to 0.097 µM
IC50 (JNK2; DELFIA assay): 0.011 µM
IC50 (JNK3; DELFIA assay): 0.012 µM
Compound: Cc1nc2ccc(-n3cc(CNC(=O)c4cccc(C(=O)NC(C)C)n4)cn3)cc2n1C [Compound 233]

IC50 (JNK1; [3]): 0.004 to 0.097 µM and 0.027 µM
IC50 (JNK2; [4]): 0.048 µM
IC50 (JNK3; [5]): 0.016 µM
Compound: CC(C)NC(=O)c1cccc(C(=O)NCc2cnn(-c3ccc(C#N)cc3)c2)n1 [Compound 135]

IC50 (JNK1; [1]): 0.015 µM
IC50 (JNK1; [3]): 0.004 to 0.019 µM and 0.004 to 0.097 µM
IC50 (JNK2; DELFIA assay): 0.02 µM
IC50 (JNK3; DELFIA assay): 0.02 µM
Compound: CC(C)NC(=O)c1cccc(C(=O)NCc2cnn(-c3cccc(C#N)c3)c2)n1 [Compound 134]

IC50 (JNK1; [1]): 0.018 µM
IC50 (JNK1; [2]): 0.018 µM
IC50 (JNK1; [3]): 0.004 to 0.097 µM and 0.004 to 0.019 µM
IC50 (JNK2; DELFIA assay): 0.008 µM
IC50 (JNK3; DELFIA assay): 0.01 µM
Compound: CC(C)NC(=O)c1cccc(C(=O)NCc2cnn(-c3cnc4cccnc4c3)c2)n1 [Compound 222]

IC50 (JNK1; [3]): 0.004 to 0.019 µM and 0.004 to 0.097 µM and 0.013 µM
IC50 (JNK2; [4]): 0.011 µM
IC50 (JNK3; [5]): 0.009 µM
Compound: CC(C)NC(=O)c1cccc(C(=O)NCc2cnn(-c3cccc(C(F)(F)F)c3)c2)n1 [Compound 140]

IC50 (JNK1; [3]): 0.004 to 0.019 µM and 0.004 to 0.097 µM and 0.011 µM
IC50 (JNK2; [4]): 0.008 µM
IC50 (JNK3; [5]): 0.009 µM
Compound: CC(C)NC(=O)c1cccc(C(=O)NCc2cnn(-c3ccc(S(=O)(=O)N(C)C)cc3)c2)n1 [Compound 152]

IC50 (JNK1; [1]): 0.013 µM
IC50 (JNK1; [3]): 0.004 to 0.019 µM and 0.004 to 0.097 µM
IC50 (JNK2; DELFIA assay): 0.003 µM
IC50 (JNK3; DELFIA assay): 0.012 µM
Compound: CC(C)NC(=O)c1cccc(C(=O)NCc2cnn(-c3ccc(S(C)(=O)=O)cc3)c2)n1 [Compound 137]

IC50 (JNK1; [3]): 0.004 to 0.019 µM and 0.004 to 0.097 µM and 0.006 µM
IC50 (JNK2; [4]): 0.008 µM
IC50 (JNK3; [5]): 0.009 µM
Compound: CC(C)NC(=O)c1cccc(C(=O)NCc2cnn(-c3ccc4ncccc4c3)c2)n1 [Compound 142]

IC50 (JNK1; [3]): 0.004 to 0.097 µM
Compound: C[C@@H](CO)NC(=O)c1cccc(C(=O)NCc2ccc3nc(N)sc3c2)n1 [Compound 6]

IC50 (JNK1; [3]): 0.102 to 0.959 µM
Compound: CC(C)NC(=O)c1cccc(C(=O)NCc2ccc(Cl)cc2)n1 [Compound 97]

IC50 (JNK1; [3]): 1.03 to 10 µM and > 1 µM
Compound: Cc1ccnn1-c1cccc(C(=O)NCc2ccc(S(C)(=O)=O)cc2)n1 [Compound 325]

IC50 (JNK1; [3]): 0.102 to 0.959 µM
Compound: CC(C)NC(=O)c1cccc(C(=O)NCc2ccc(-c3cccc(S(C)(=O)=O)c3)nc2)n1 [Compound 180]

IC50 (JNK1; [3]): 1.03 to 10 µM and > 1 µM
Compound: Cc1nn(-c2ccccc2)c(C)c1CNC(=O)c1cccc(C(=O)NC(C)C)n1 [Compound 105]

IC50 (JNK1; [3]): 0.102 to 0.959 µM
Compound: Cc1nc2cc(CNC(=O)c3cccc(C(=O)NC(C)C)n3)ccc2n1C [Compound 127]

IC50 (JNK1; [3]): 0.102 to 0.959 µM
Compound: CCOC(=O)N1CCC(NC(=O)c2cccc(C(=O)NCc3ccc4c(c3)OCO4)n2)CC1 [Compound 44]

IC50 (JNK1; [3]): 0.102 to 0.959 µM
Compound: CC(C)NC(=O)c1cccc(C(=O)NCc2ccc(-c3ccc(F)c(Cl)c3)nc2)n1 [Compound 184]

IC50 (JNK1; [3]): 0.102 to 0.959 µM
Compound: Nc1nc2ccc(CNC(=O)c3cccc(C(=O)NC4CC4)n3)cc2s1 [Compound 48]

IC50 (JNK1; [3]): 0.102 to 0.959 µM
Compound: CC(C)NC(=O)c1cccc(C(=O)NCc2ccc(-c3ccccc3)cc2)n1 [Compound 112]

IC50 (JNK1; [3]): > 1 µM and 1.03 to 10 µM
Compound: CC(C)NC(=O)c1cccc(C(=O)Nc2cccnc2)n1 [Compound 90]

IC50 (JNK1; [3]): > 1 µM and 1.03 to 10 µM
Compound: CC(C)NC(=O)c1cccc(C(=O)NCC2CCN(c3cccc(C#N)c3)CC2)n1 [Compound 419]
